Patent publication US20240016882A1, “AUTOPHAGY-INHIBITING PEPTIDE AND ORGANIC ACID SALT THEREOF ADDRESSING ISSUES OF VASCULAR PERMEABILITY” (BIOTEMPT B.V., priority 2020, published 2024)
Like-named read-outs stand apart in the source and are kept apart here. Ends that are not written are not given here. Peptide text beside a SMILES is read from it.

How the values were obtained:
[1] = Solubility / aggregation points of AQGV salts in 0.9% NaCl
Description: (§1) At first attempts were made to mix a solution of the free base and an acid in order to achieve a concentrated DMSO solution of the salt and subsequently dilute this in water in order to determine solubility. […] It was decided to determine the solubility of the salts required by dilution of known amount of salts (not soluble) till a clear solution is obtained.

[2] = Dose-escalating phase I studies: pharmacokinetics, safety and tolerability of AQGV; type: in vivo, humans (healthy subjects)
Method: Three double-blind, randomized, placebo-controlled, dose-escalating phase I studies in healthy subjects were conducted to evaluate safety, tolerability and pharmacokinetics of AQGV (SEQ ID NO: 5). In the first single dose study, 32 subjects were assigned to four single dosage groups (1, 3, 10 or 30 mg/kg). In the second multiple dosage study, 24 subjects were assigned to three dosing groups (10, 20 or 30 mg/kg) and received study medication thrice a day for three days. In the third continuous dosing study, 24 subjects were assigned to three dosing groups (15, 30 or 90 mg/kg/hour) to receive study medication by 2-hour continuous iv infusion. Pharmacokinetics (PK), safety and tolerability assessments were performed up to 14-days.

[3] = Previous first in human study of AQGV; type: in vivo; details: up to i.v. doses of 30 mg/kg three times a day (90 mg/kg daily) for three days
[4] = tested on: p38 MAPK; experiment: Phosphorylation status after fMLP challenge of hPBMCs: p38 MAPK; type: cell-based, human; details: 1 μM fMLP
Method: (§2) Human-derived peripheral blood monocytes as a prototype cell-system for FPR-expression were isolated from healthy volunteers (hPBMCs) according to routine procedures^1 at University Medical Centre Groningen, The Netherlands. Subsequently PMBC were incubated with the Biotempt-supplied peptide AQGV (SEQ ID NO: 5) (which was freshly prepared as a 20 […] stock solution in bidistilled water) or treated with the vehicle for 10 min. Then hPMBCs were challenged with 1 μM fMLP for various time periods (see results FIGS. 4a, b, 4c and 4d). Each stimulus 0, 30, 60, 300 and 600 seconds at two concentrations AQGV (SEQ ID NO: 5), 20 ng/ml and 50 ng/ml and in six-fold. Following stimulation with fMLP for the indicated time periods, the phosphorylation status of p38MAPK, JNK, PKB, P42/p44MAPK/ERK1,2 and STAT3 was analysed 3. STAT3 was undetectable, JNK and P42/p44MAPK/ERK1,2.

[5] = tested on: PKB (also known as AKT); experiment: Phosphorylation status after fMLP challenge of hPBMCs: PKB (AKT); type: cell-based, human; details: 1 μM fMLP
Method: as §2

[6] = tested on: JNK; experiment: Phosphorylation status after fMLP challenge of hPBMCs: JNK; type: cell-based, human; details: hPBMC, 1 μM fMLP, 0-600 seconds
Method: as §2

[7] = tested on: P42/p44MAPK/ERK1,2; experiment: Phosphorylation status after fMLP challenge of hPBMCs: P42/p44MAPK/ERK1,2; type: cell-based, human; details: hPBMC, 1 μM fMLP, 0-600 seconds
Method: as §2

[8] = tested on: autophagy; details: cited from earlier work
[9] = tested on: human cells; details: AJ Meijer et al Amino Acids 2015; cited from earlier work
[10] = target: mTOR kinases (Homo sapiens, UniProt P42345); details: cited from earlier work
[11] = Description: as §1
[12] = set-up: species or system male CD-1 mice; details: mouse, in vivo
Method: The present study, which was conducted by TNO Biosciences, Utrechtseweg, Netherlands, was designed to provide data on the distribution and metabolism of [14C]-AQGV (“AQGV” disclosed as SEQ ID NO: 5) (Ala-Gln-[1-^14C]Gly-Val (“AQGV” disclosed as SEQ ID NO: 5)) in male CD-1 mice following a single intravenous dose of 50 mg/kg. To this end, mice were sacrificed at […], and 6 and 24 hours after administration of radiolabeled AQGV (SEQ ID NO: 5), counts in various tissues were determined, and the radioactivity present in the urine and plasma were analyzed by HPLC.

[13] = cited from earlier work

## CC(C)[C@H](NC(=O)CNC(=O)[C@H](CCC(N)=O)NC(=O)[C@H](C)N)C(=O)O [AQGV-citrate] (H-AQGV-OH)
[1]; 0.9% NaCl
  solubility compared to AQGV-Ac: Higher solubility
[1]; 0.9% NaCl, listed as Citric acid
  appearance / behaviour of the concentrated solution: does not crystallize or aggregate but tend to form a highly viscous solution
[1]; 0.9% NaCl, listed as citric acid
  appearance / behaviour of the concentrated solution: remains clear but got very thick/viscous
[1]; in 0.5 mL 0.9% NaCl
  total amount dissolved: 2.75 mmol

## CC(C)[C@H](NC(=O)CNC(=O)[C@H](CCC(N)=O)NC(=O)[C@H](C)N)C(=O)O [AQGV] (H-AQGV-OH)
[2]; human, in vivo, iv, range over phase I studies, read-out: clearance rate
  clearance: 433 to 1020 mL/min/kg
[2]; human, in vivo, iv, range over phase I studies, read-out: estimated half life time
  half-life: 2 to 22 min
[2]; human, in vivo, iv, range over phase I studies, read-out: volume of distribution
  Vd: 4 to 33 L/kg
[2]; i.v., range over phase I studies
  more than proportional increases in exposure to the highest dosages: 126-137%
[2]; i.v., single, multiple and continuous dosing up to 90 mg/kg/hour
  tolerability: well tolerated
[2]; phase I studies
  serious adverse events: no serious adverse events
[2]; subjects receiving AQGV
  subjects reporting AEs with a possible relationship to study drug: 3 subjects
[3]
  tolerability: well tolerated
[4]; hPBMC
  effect on p38 MAPK kinase activated changes: reduces p38 MAPK kinase activated changes
[4]; hPBMC, 20 and 50 ng/ml AQGV
  time after FPR-stimulation at which effects on p38 MAPK are detected: 30 s
[4]; hPBMC, 600 seconds tested
  duration of effects on p38 signalling: 600 s
[5]; hPBMC
  effect on PI3K/AKT/mTOR activated induced changes: reduces PI3K/AKT/mTOR activated induced changes
[5]; hPBMC, 600 seconds tested
  duration of effects on PKB-mediated signalling: 600 s
[5]; hPBMC, bi-phasic pattern
  time after FPR-stimulation at which effects on PKB(AKT) follow: 300 s
[6]
  effect on JNK phosphorylation status: not affected throughout
[7]
  effect on P42/p44MAPK/ERK1,2 phosphorylation status: not affected throughout

## C[C@H](N)C(=O)O [L-Alanine]
[8]
  Literature based activity autophagy: DOWN
[9]
  autophagic effects on human cells: most prominent autophagic effects

## N=C(N)NCCC[C@H](N)C(=O)O [L-Arginine]
[10]
  Literature based activity mTOR kinases: activate
[8]
  Literature based activity autophagy: DOWN

## NC(=O)CC[C@H](N)C(=O)O [L-Glutamine]
[10]
  Literature based activity mTOR kinases: activate
[8]
  Literature based activity autophagy: DOWN
[9]
  autophagic effects on human cells: most prominent autophagic effects

## NCC(=O)O [L-Glycine]
[8]
  Literature based activity autophagy: DOWN

## N[C@@H](Cc1c[nH]cn1)C(=O)O [L-Histidine]
[10]
  Literature based activity mTOR kinases: down

## CC[C@H](C)[C@H](N)C(=O)O [L-Isoleucine]
[10]
  Literature based activity mTOR kinases: activate
[8]
  Literature based activity autophagy: DOWN

## CC(C)C[C@H](N)C(=O)O [L-Leucine]
[10]
  Literature based activity mTOR kinases: activate
[8]
  Literature based activity autophagy: DOWN
[9]
  autophagic effects on human cells: most prominent autophagic effects

## NCCCC[C@H](N)C(=O)O [L-Lysine]
[10]
  Literature based activity mTOR kinases: down

## CSCC[C@H](N)C(=O)O [L-Methionine]
[10]
  Literature based activity mTOR kinases: partial

## O=C(O)[C@@H]1CCCN1 [L-Proline]
[10]
  Literature based activity mTOR kinases: activate
[9]
  autophagic effects on human cells: most prominent autophagic effects

## C[C@@H](O)[C@H](N)C(=O)O [L-Threonine]
[10]
  Literature based activity mTOR kinases: down

## CC(C)[C@H](N)C(=O)O [L-Valine]
[10]
  Literature based activity mTOR kinases: activate

## Nc1ncnc2c1ncn2[C@@H]1O[C@H](COP(=O)(O)O)[C@@H](O)[C@H]1O [adenosine-monophosphate]
[1]; 0.9% NaCl
  appearance / behaviour of the concentrated solution: no clear solution could be obtained

## Nc1ncnc2c1ncn2[C@@H]1O[C@H](CO)[C@@H](O)[C@H]1O [adenosine]
[1]; 0.9% NaCl
  appearance / behaviour of the concentrated solution: no clear solution could be obtained
[11]
  solubility in DMSO: did not dissolve in DMSO at all

## CSCC[C@H](NC=O)C(=O)N[C@@H](CC(C)C)C(=O)N[C@@H](Cc1ccccc1)C(=O)O [fMLP, N-formyl-methionyl-leucyl-phenylalanine, reference compound]
[4]; p<0.05 from 60 to 600 sec
  changes in phosphorylation status of p38 MAPK caused by FPR-activation: rapidly induced and significant
[5]; p<0.05 at 600 sec
  changes in phosphorylation status of PKB caused by FPR-activation: rapidly induced and significant

## Ala-Gln-[1-^14C]Gly-Val [[14C]-AQGV]
[12]
  administered radioactivity exhaled as volatiles: About 50%
  time to full hydrolysis of the peptide after administration: 15 min

## VRLIVAVRIWRR-NH2 [IDR-1018]
[13]; prepared in sodium acetate
  aggregation: did not induce any appreciable aggregation
[13]; solutions containing large polyatomic anions: phosphate, benzoate, nitrate, citrate
  aggregation: suffer strongly from aggregation
[13]; solutions containing sulfate, bicarbonate, chloride, iodide anions
  aggregation: comparatively small amount of aggregation
[13]; sulfate, bicarbonate, chloride, iodide anions
  ion concentration at which aggregation was observed: above 200 mM
